Assay results from article PMC12627627 (Nature Communications, 2025).
“And” between values parts separate entries of the source, which are not always exact repeats. Equal entries are not always repeated.

Legend:
[1] = molecular target: T1, RyR1-W995A R12 (Homo sapiens, UniProt P21817, W995A); assay: ITC, RyR1 R12 W995A; type: binding
T1 construct: RyR1 854–1054, RyR2 865–1065, RyR3 853–1053; made in house; host or cells: E. coli BL21 (DE3)
T1 sequence (P21817 854-1054 W995A): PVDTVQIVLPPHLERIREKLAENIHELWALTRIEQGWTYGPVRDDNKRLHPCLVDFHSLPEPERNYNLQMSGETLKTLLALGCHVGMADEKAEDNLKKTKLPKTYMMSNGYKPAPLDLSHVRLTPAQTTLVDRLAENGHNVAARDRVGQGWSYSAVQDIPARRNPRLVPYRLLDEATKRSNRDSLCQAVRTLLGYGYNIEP
Description: The plasmids were subsequently transformed into E. coli BL21 (DE3) cells (NEB, USA) and cultured in Luria-Bertani (LB) media at 37 °C. Protein expression was induced with 0.4 mM isopropyl β-D-thiogalactoside (IPTG) when the optical density (OD)600 reached ~0.8, followed by incubation at 18 °C for 12 h. The cells were harvested via centrifugation at 5,000 × g for 15 min at 4 °C and homogenized in Buffer A (10 mM HEPES, pH 7.4, 250 mM KCl) supplemented with 25 µg/mL DNaseI, 25 µg/mL lysozyme, 1 mM phenylmethylsulfonyl fluoride (PMSF), and 20 mM imidazole. The homogenate was centrifuged at 12,000 × g for 45 min, and the supernatant was filtered through a syringe filter (0.22 µm).
Purified R12 domain protein from the three RyR isoforms, fused with hexahistidine-tagged MBP (HMT-R12) was dialyzed overnight at 4 °C in ITC buffer (200 mM HEPES, pH 7.4, 150 mM KCl). ITC experiments were performed using a PEAQ-ITC instrument (Malvern, UK) at 25 °C with a stirring speed of 750 rpm. […] For the ternary binding experiments, 500 μM or 5 mM AMP-PCP/ADP was preincubated with both the titrants and titrates. […] The data was fit to a one-site fitting model after background buffer subtraction. The RyR1 R12 mutants were generated using a QuikChange mutagenesis kit (Stratagene) according to the manufacturer’s protocol, with primer sequences listed in Supplementary Table 3.

[2] = molecular target: T2, RyR1 W881A (Oryctolagus cuniculus, UniProt P11716, W882A); assay: Time-lapse [Ca2+]ER measurement, HEK293 cells expressing RyR1 W881A; type: cell-based; settings: 4 mM caffeine; for ER luminal [Ca2+] change (F/F0): Fig. 5H source data, RyR1-W881A, single replicates
T2 construct: expressed in transfected cells
Description: HEK293 cells stably expressing R-CEPIA1er and RyRs (WT RyR1, RyR1-W881A, RyR1-W995A, RyR1-R2163C, and WT RyR2)[26],[27] were used in this study. Briefly, the cells were seeded at a density of 2 × 10⁴ cells/well in a 96-well black, clear-bottom plate (Corning). Doxycycline (2 µg/mL) was added 12 h after seeding, and the medium was replaced 24 h later with HEPES-buffered Krebs solution (5 mM HEPES, pH 7.4; 140 mM NaCl; 5 mM KCl; 2 mM CaCl₂; 1 mM MgCl₂; and 11 mM glucose). Fluorescence measurements were conducted using a FlexStation 3 fluorometer (Molecular Devices) at 37 °C. The R-CEPIA1er was excited at 560 nm, emitted at 610 nm, and captured every 10 seconds over 300 seconds. Different concentrations of compound, dissolved in buffer containing 1% DMSO, were added 100 s after recording began. The fluorescence changes (F/F₀) were calculated by dividing the average fluorescence of the last 100 seconds (F) by that of the first 100 seconds (F₀). All measurements were performed in triplicate.

| Structure (SMILES) | binding to RyR1 R12 W995A by ITC ([1]; in the presence of AMP-PCP or ADP) | binding to RyR1 R12 W995A by ITC ([1]; no nucleotide) | ER luminal [Ca2+] change (F/F0) ([2]; RI-2 0.1 uM) | ER luminal [Ca2+] change (F/F0) ([2]; RI-2 0.3 uM) | ER luminal [Ca2+] change (F/F0) ([2]; RI-2 1 uM) | ER luminal [Ca2+] change (F/F0) ([2]; RI-2 3 uM) | ER luminal [Ca2+] change (F/F0) ([2]; RI-2 10 uM) | ER luminal [Ca2+] change (F/F0) ([2]; RI-2 30 uM) | ER luminal [Ca2+] change (F/F0) ([2]; RI-2 100 uM) | inhibitory effect in time-lapse ER Ca2+ measurements ([2]; RyR1 W881A) |
| --- | --- | --- | --- | --- | --- | --- | --- | --- | --- | --- |
| O=C1CN(/N=C/c2ncc(-c3ccc(Br)cc3)o2)C(=O)N1 [AZU, Azumolene] | can no longer be detected | completely abolishes | – | – | – | – | – | – | – | – |
| O=C(C[C@@H](NCCCO)C(=O)O)Nc1ccc2ccccc2c1 [RI-2] | – | – | 0.9939 and 0.9815 and 1.025 | 0.9808 and 0.9609 and 0.9633 | 0.959 and 0.9789 and 1.039 | 0.968 and 1.003 and 1.025 | 0.9988 and 0.9974 and 1.012 | 1.035 and 0.9972 and 1.041 | 0.9975 and 1.115 and 0.9708 | completely lost |
